In patent publication US20170334899A1, “AMINO-SUBSTITUTED ISOTHIAZOLES” (Bayer Pharma Aktiengesellschaft, priority 2014, published 2017):
pIC50: −log10 of the molar value.

Tests used:
[1] = tested on: human cervical tumor cell line HeLa (ATCC CCL-2); experiment: SAC-Formation - Nocodazole-Induced Assay; format: cell-based; conditions: Homo sapiens, HeLa, 24 h, HeLa cells, nocodazole 0.1 μg/ml together with test compound, decrease of mitotic cells (phospho-histone H3 Ser10)
Procedure, shortened: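 Loss of phospho-histone H3 Ser10-positive cells, counted against Hoechst-stained nuclei by high-content imaging, marked mitotic breakthrough. Compounds (0.005–20 μM, 0.5% DMSO) were co-dosed with 0.1 μg/ml nocodazole onto HeLa cells for 24 h at 37 °C. Curves were fitted with a four-parameter Hill equation.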

CDK2/CycE = molecular target: T1, CDK2/CycE (Homo sapiens, UniProt P24941); experiment: CDK2/CycE kinase assay (TR-FRET); format: biochemical; conditions: avg, read-out: CDK2 avg (IC50 [mol/l])
T1 construct: GST; purchased ProQinase GmbH (Freiburg, Germany); host or cells: insect cells (Sf9)
Procedure, shortened: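 Read-out is a TR-FRET 665/620 nm emission ratio from EDTA-stopped reactions detected with anti-pRB(pSer807/pSer811), Eu-labelled anti-mouse IgG and streptavidin-XL665, scaled between no-enzyme and uninhibited wells. Reaction: Sf9-expressed GST-CDK2/GST-CycE, 15 min compound preincubation, 10 μM ATP, 0.75 μM biotin-peptide, 25 min, 22° C., pH 8.0 Tris buffer.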

Structure (SMILES) | pIC50 [1] | pIC50 (CDK2/CycE)
Cc1nsc(Nc2ccc(C#N)cn2)c1C(=O)Nc1ccc(OC2CCNCC2)nc1 [Example 28, 5-[(5-Cyanopyridin-2-yl)amino]-3-methyl-N-[6-(piperidin-4-yloxy)pyridin-3-yl]-1,2-thiazole-4-carboxannide] | 4.96 | ≤ 4.70
Cc1nsc(Nc2ccc(C#N)cn2)c1C(=O)Nc1ccc(OC2CCN(CCF)CC2)nc1 [Example 29, 5-[(5-Cyanopyridin-2-yl)amino]-N-(6-{[1-(2-fluoroethyl)piperidin-4-yl]oxy}pyridin-3-yl)-3-methyl-1,2-thiazole-4-carboxamide] | 4.80 | ≤ 4.70
Cc1nsc(Nc2ccc(C#N)cn2)c1C(=O)Nc1ccc(OC2CCN(CC(F)(F)F)CC2)nc1 [Example 30, 5-[(5-Cyanopyridin-2-yl)amino]-3-methyl-N-(6-{[1-(2,2,2-trifluoroethyl)piperidin-4-yl]oxy}pyridin-3-yl)-1,2-thiazole-4-carboxamide] | 6.21 | ≤ 4.70
Cc1nsc(Nc2cnc3ccccc3n2)c1C(=O)Nc1ccc(OC2CCCN(C(=O)OC(C)(C)C)C2)nc1 (centres unmarked) [Example 31, tert-Butyl 3-{[5-({[3-methyl-5-(quinoxalin-2-ylamino)-1,2-thiazol-4-yl]carbonyl}-amino)pyridin-2-yl]oxy}piperidine-1-carboxylate] | 6.66 | ≤ 4.70
Cc1nsc(Nc2cnc3ccccc3n2)c1C(=O)Nc1ccc(OC2CCCNC2)nc1 (centres unmarked) [Example 32, 3-Methyl-N-[6-(piperidin-3-yloxy)pyridin-3-yl]-5-(quinoxalin-2-ylamino)-1,2-thiazole-4-carboxannide] | 5.40 | ≤ 4.70
Cc1nsc(Nc2cnc3ccccc3n2)c1C(=O)Nc1ccc(OC2CCCN(CC(F)F)C2)nc1 (centres unmarked) [Example 33, N-(6-{[1-(2,2-Difluoroethyl)piperidin-3-yl]oxy}pyridin-3-yl)-3-methyl-5-(quinoxalin-2-ylamino)-1,2-thiazole-4-carboxamide] | 5.85 | ≤ 4.70
Cc1nsc(Nc2cc(C#N)ccn2)c1C(=O)Nc1ccc(OC2CCCN(C(=O)OC(C)(C)C)C2)nc1 (centres unmarked) [Example 34, tert-Butyl 3({5-[({5-[(4-cyanopyridin-2-yl)amino]-3-methyl-1,2-thiazol-4-yl}-carbonyl)amino]pyridin-2-yl}oxy)piperidine-1-carboxylate] | 6.55 | ≤ 4.70
Cc1nsc(Nc2cnc(C(F)(F)F)cn2)c1C(=O)Nc1ccc(OCCNCCC(F)(F)F)nc1 [Example 323, 3-methyl-5-{[5-(trifluoromethyl)pyrazin-2-yl]amino}-N-(6-{2-[(3,3,3-trifluoropropyl)amino]ethoxy}pyridin-3-yl)-1,2-thiazole-4-carboxamide] | 7.52 | ≤ 4.70
Cc1nsc(Nc2cnc(C(F)(F)F)cn2)c1C(=O)Nc1ccc(OC2CCN(C(CF)CF)CC2)nc1 [Example 324, N-(6-{[1-(1,3-difluoropropan-2-yl)piperidin-4-yl]oxy}pyridin-3-yl)-3-methyl-5-{[5-(trifluoromethyl)pyrazin-2-yl]amino}-1,2-thiazole-4-carboxamide] | 7.15 | ≤ 4.70
Cc1nsc(Nc2cnc(C(F)(F)F)cn2)c1C(=O)Nc1ccc(OCC2CCCN(CCF)C2)nc1 (centres unmarked) [Example 325, N-(6-{[1-(2-fluoroethyl)piperidin-3-yl]methoxy}pyridin-3-yl)-3-methyl-5-{[5-(trifluoromethyl)pyrazin-2-yl]amino}-1,2-thiazole-4-carboxamide] | 6.96 | ≤ 4.70
Cc1nsc(Nc2cnc(C(F)(F)F)cn2)c1C(=O)Nc1ccc(OCC2CCCN(CC(F)(F)F)C2)nc1 (centres unmarked) [Example 326, 3-methyl-N-(6-{[1-(2,2,2-trifluoroethyl)piperidin-3-yl]methoxy}pyridin-3-yl)-5-{[5-(trifluoromethyl)pyrazin-2-yl]amino}-1,2-thiazole-4-carboxamide] | 8.25 | ≤ 4.70
Cc1nsc(Nc2cnc(C(F)(F)F)cn2)c1C(=O)Nc1ccc(OCC2CCCN(CC(F)F)C2)nc1 (centres unmarked) [Example 327, N-(6-{[1-(2,2-difluoroethyl)piperidin-3-yl]methoxy}pyridin-3-yl)-3-methyl-5-{[5-(trifluoromethyl)pyrazin-2-yl]amino}-1,2-thiazole-4-carboxamide] | 8.20 | ≤ 4.70
Cc1nsc(Nc2cnc(C(F)(F)F)cn2)c1C(=O)Nc1ccc(OCC2CCCN(CCC(F)(F)F)C2)nc1 (centres unmarked) [Example 328, 3-methyl-5-{[5-(trifluoromethyl)pyrazin-2-yl]amino}-N-(6-{[1-(3,3,3-trifluoropropyl)piperidin-3-yl]methoxy}pyridin-3-yl)-1,2-thiazole-4-carboxamide] | 8.74 | ≤ 4.70
Cc1nsc(Nc2cnc(C(F)(F)F)cn2)c1C(=O)Nc1ccc(OC2CCCN(CCF)C2)nc1 (centres unmarked) [Example 329, N-(6-{[1-(2-fluoroethyl)piperidin-3-yl]oxy}pyridin-3-yl)-3-methyl-5-{[5-(trifluoromethyl)pyrazin-2-yl]amino}-1,2-thiazole-4-carboxamide] | 7.46 | ≤ 4.70
Cc1nsc(Nc2cnc(C(F)(F)F)cn2)c1C(=O)Nc1ccc(OC2CCCN(CC(F)F)C2)nc1 (centres unmarked) [Example 330, N-(6-{[1-(2,2-difluoroethyl)piperidin-3-yl]oxy}pyridin-3-yl)-3-methyl-5-{[5-(trifluoromethyl)pyrazin-2-yl]amino}-1,2-thiazole-4-carboxamide] | 7.64 | ≤ 4.70
Cc1nsc(Nc2cnc(C(F)(F)F)cn2)c1C(=O)Nc1ccc(OC2CCCN(CC(F)(F)F)C2)nc1 (centres unmarked) [Example 331, 3-methyl-N-(6-{[1-(2,2,2-trifluoroethyl)piperidin-3-yl]oxy}pyridin-3-yl)-5-{[5-(trifluoromethyl)pyrazin-2-yl]amino}-1,2-thiazole-4-carboxamide] | 8.21 | ≤ 4.70
Cc1nsc(Nc2cnc(C(F)(F)F)cn2)c1C(=O)Nc1ccc(OC2CCCN(CCC(F)(F)F)C2)nc1 (centres unmarked) [Example 332, 3-methyl-5-{[5-(trifluoromethyl)pyrazin-2-yl]amino}-N-(6-{[1-(3,3,3-trifluoropropyl)piperidin-3-yl]oxy}pyridin-3-yl)-1,2-thiazole-4-carboxamide] | 8.15 | ≤ 4.70
Cc1nsc(Nc2cnc(C(F)(F)F)cn2)c1C(=O)Nc1ccc(OC2CCCN(C(CF)CF)C2)nc1 (centres unmarked) [Example 333, N-(6-{[1-(1,3-difluoropropan-2-yl)piperidin-3-yl]oxy}pyridin-3-yl)-3-methyl-5-{[5-(trifluoromethyl)pyrazin-2-yl]amino}-1,2-thiazole-4-carboxamide] | 7.14 | ≤ 4.70
Cc1nsc(Nc2cnc(C(F)(F)F)cn2)c1C(=O)Nc1ccc(F)c(OCC2CCCN(CC(F)F)C2)c1 (centres unmarked) [Example 334, N-(3-{[1-(2,2-difluoroethyl)piperidin-3-yl]methoxy}-4-fluorophenyl)-3-methyl-5-{[5-(trifluoromethyl)pyrazin-2-yl]amino}-1,2-thiazole-4-carboxamide] | 7.33 | ≤ 4.70
Cc1nsc(Nc2cnc(C(F)(F)F)cn2)c1C(=O)Nc1ccc(F)c(OCC2CCCN(CCF)C2)c1 (centres unmarked) [Example 336, N-(4-fluoro-3-{[1-(2-fluoroethyl)piperidin-3-yl]methoxy}phenyl)-3-methyl-5-{[5-(trifluoromethyl)pyrazin-2-yl]amino}-1,2-thiazole-4-carboxamide] | 7.31 | ≤ 4.70
Cc1nsc(Nc2cnc(C(F)(F)F)cn2)c1C(=O)Nc1ccc(F)c(OCC2CCCN(CC(F)(F)F)C2)c1 (centres unmarked) [Example 337, N-(4-fluoro-3-{[1-(2,2,2-trifluoroethyl)piperidin-3-yl]methoxy}phenyl)-3-methyl-5-{[5-(trifluoromethyl)pyrazin-2-yl]amino}-1,2-thiazole-4-carboxamide] | 7.21 | ≤ 4.70
Cc1nsc(Nc2cnc(C(F)(F)F)cn2)c1C(=O)Nc1ccc(F)c(OCC2CCCN(CCC(F)(F)F)C2)c1 (centres unmarked) [Example 338, N-(4-fluoro-3-{[1-(3,3,3-trifluoropropyl)piperidin-3-yl]methoxy}phenyl)-3-methyl-5-{[5-(trifluoromethyl)pyrazin-2-yl]amino}-1,2-thiazole-4-carboxamide] | 7.57 | ≤ 4.70
Cc1nsc(Nc2cnc(C(F)(F)F)cn2)c1C(=O)Nc1ccc(F)c(OC[C@@H]2CCN(CC(F)(F)F)C2)c1 [Example 339, N-(4-fluoro-3-{[(3R)-1-(2,2,2-trifluoroethyl)pyrrolidin-3-yl]methoxy}phenyl)-3-methyl-5-{[5-(trifluoromethyl)pyrazin-2-yl]amino}-1,2-thiazole-4-carboxamide] | 7.40 | < 4.70
Cc1nsc(Nc2cnc(C(F)(F)F)cn2)c1C(=O)Nc1ccc(F)c(OC[C@@H]2CCN(CCC(F)(F)F)C2)c1 [Example 340, N-(4-fluoro-3-{[(3R)-1-(3,3,3-trifluoropropyl)pyrrolidin-3-yl]methoxy}phenyl)-3-methyl-5-{[5-(trifluoromethyl)pyrazin-2-yl]amino}-1,2-thiazole-4-carboxamide] | 7.48 | < 4.70
Cc1nsc(Nc2cnc(C(F)(F)F)cn2)c1C(=O)Nc1ccc(F)c(OC[C@@H]2CCCN(CC(F)F)C2)c1 [Example 341, N-(3-{[(3R)-1-(2,2-difluoroethyl)piperidin-3-yl]methoxy}-4-fluorophenyl)-3-methyl-5-{[5-(trifluoromethyl)pyrazin-2-yl]amino}-1,2-thiazole-4-carboxamide] | 7.57 | < 4.70
